Publication PMC5459853, “Cathepsin S inhibition combines control of systemic and peripheral pathomechanisms of autoimmune tissue injury” (Scientific Reports, 2017)
“Also recorded” adds a separate entry of the source.

Tests used:
Type in all cases: in vivo
[1] = test system: MRL-(Fas)lpr mice; assay: Experimental lupus nephritis, late onset of treatment week 15 to 19; conditions: late onset week 15-19
Description: To further assess the potency of Cat-S inhibition to control advanced lupus nephritis we performed identical experiments with the highest dose of RO5459072 and MMF, which were not initiated before week 15 of age and continued for only 4 weeks and terminated again at week 19.
(§1) Four-week-old female MRL-(Fas)lpr mice were purchased from Harlan Winkelmann (Borchen, Germany) and kept under pathogen-free conditions in a 12 hour light and dark cycle with free access to food and water. All animal experiments were performed in accordance with the European protection laws of animal welfare, and with approval by the local government authorities Regierung von Oberbayern (reference number: 55.2.1-54-2532.2-11-12). At 11 or 15 weeks of age only mice with proteinuria (Albustix, Bayer AG, Leverkusen, Germany) were randomized into five different groups (n = 10) receiving different medicated diets: Three groups were fed with chow mixed with either 3, 10 or 30 mg/kg/day RO5459072, another group’s chow was mixed with 100 mg/kg/day mycophenolate mofetil (MMF), and one group received a standard diet (vehicle). The dose of MMF was chosen according to several studies reporting strong efficacy on SLE and lupus nephritis in MRL-(Fas)lpr mice[24]–[26]. […] At the age of 19 weeks all mice were sacrificed by cervical dislocation. Blood and urine samples were collected at different time points as indicated. In other experiments 7 week old female MRL-(Fas)lpr mice were randomized into three groups (n = 3) to receive a single intravenous injection of 10 µg sterile recombinant Cat-S and one group receiving vehicle (100 µl sterile PBS). One of the Cat-S groups was pretreated with 30 mg/kg/day RO5459072 starting one week prior to Cat-S injection; another group was pretreated with a total of four daily intra-peritoneal injections of the PAR-2 inhibitor GB83 (10 mg/kg).
(§2) Kidney tissue samples were collected from all mice and fixed overnight in 4% buffered formalin. Subsequently the fixed tissue samples were embedded in paraffin and cut into 4 µm thick serial sections. Kidney paraffin sections were stained with periodic acid-Schiff (PAS) reaction using standardized protocols as described. Scoring of lupus nephritis activity and chronicity indices was performed according to human lupus nephritis, [43]. Methenamine silver staining was performed on paraffin embedded kidney sections and semiquantitatively scored form 0–3 by a blinded observer. For immunostaining the following primary antibodies were used: anti-mouse CD3 (Abcam, Cambridge, UK), complement C3c (Biobyt Ltd, Cambridge, UK), CD31 (Dianova GmbH, Hamburg, Germany), WT1 (Santa Cruz Biotechnology, Dallas, Texas) and nephrin (Acris Antibodies, San Diego, CA). The immunostaining for C3c and CD31 were analyzed using the ImageJ software by measuring positively stained area and dividing it by the total area of the glomerulus and reported as percentage of +ve area. Sections stained for WT1/nephrin and CD3 were evaluated by counting positive cells per glomerulus. All the morphometric analysis were carried out in a blinded fashion.
(§3) Urinary albumin/creatinine ratios were determined using the Mouse Albumin ELISA Quantitation set (Bethyl Laboratories, Montgomery, TX) and the Creatinine FS kit (DiaSys Diagnostic Systems, Holzheim, Germany)[44]. BUN levels were determined in plasma samples using a Urea FS kit (DiaSys Diagnostic Systems). Mouse IgM, IgG and its isotypes IgG1, IgG2a and IgG2b plasma levels were measured using ELISA Sets (Bethyl Laboratories) at a plasma dilution of 1:1,000 to 1:100,000. Double-stranded DNA IgG and IgM antibodies were quantified as described. Briefly, 96 well Nunc-Immuno plates (Thermo Fisher Scientific, Roskilde, Denmark) were coated with poly-L-lysine (1:1 diluted with PBS) and incubated for two hours. After washing the plates, the plates were coated with 1 µg/ml mouse tail dsDNA sparing the wells for standards, which were coated with anti-mIgG and anti-mIgM (Bethyl Laboratories). […]

[2] = test system: MRL-(Fas)lpr mice; assay: Experimental SLE and lupus nephritis, treatment week 11 to 19
Description: as §1, §2
as §3, with “Laboratories). The standard curve was fixed from purified mIgG and mIgM (Bethyl Laboratories). The plasma samples were diluted 1:1,000 and added into the wells. After 1 h the assay was developed using HRP-labelled goat anti-mIgG and anti-mIgM and TMB substrate (BD Bioscience, San Diego, CA).” for “Laboratories).”

[3] = test system: MRL-(Fas)lpr mice; assay: Intravenous recombinant Cat-S injection: albuminuria and glomerular ultrastructure (TEM); conditions: 10 µg recombinant Cat-S i.v.
Description: as §1
as §3, with “[…] Absorbance was measured at 450 nm using a Tecan Microplate Reader (Biotek, Winnoski, VT). Indirect immunofluorescence was used to quantify ANA in” for “After washing the plates, the plates were coated with 1 µg/ml”, “plasma.” for “tail dsDNA sparing the wells for standards, which were coated with anti-mIgG and anti-mIgM (Bethyl Laboratories).”
Mouse kidney tissue was fixed in 2% paraformaldehyde/2% glutaraldehyde and 0.1M sodium phosphate buffer (pH 7.4) for 24 hours and processed as described. Samples were analyzed with a 1200EX electron microscope (JEOL, Tokyo, Japan).

COc1c(C)c2c(c(O)c1C/C=C(\C)CCC(=O)OCCN1CCOCC1)C(=O)OC2 [MMF, mycophenolate mofetil, reference compound]
anti-dsDNA IgM [1]: did not affect | lupus nephritis disease chronicity index [1]: failed to significantly suppress | plasma IgM levels [1]: trend toward lower | proteinuria and BUN at week 19 compared to control mice [1]: significantly reduced | plasma IgG and its isotypes and anti-dsDNA IgG ([1]; highest dose of RO5459072, MMF): had no effect | food intake or body weight between groups ([2]; medicated diets, throughout the study period): no significant difference | intrarenal mRNA expression of IL-6, MCP-1/CCL2, RANTES/CCL5 and CXCL2 ([2]; real time PCR, kidney): suppressed | intrarenal mRNA expression of TNF-α, IFN-γ and SDF-1/CXCL12 ([2]; real time PCR, kidney): remained unaffected | blood urea nitrogen (BUN) over time ([2]; week 11-19): prevented the progressive increase | total levels of plasma IgM ([2]; week 11-19, ELISA): suppressed plasma IgM levels below baseline | plasma dsDNA IgG levels (IgG autoantibodies) ([2]; week 11-19, RO5459072 highest dose, MMF 100 mg/kg/day, ELISA): does not reduce | spleen CD11c+/CD11b+/MHCII+ antigen-presenting cells ([2]; week 11-19, flow cytometry): suppressed | integrity of the glomerular vasculature (CD31 staining) ([2]; week 19): improved

CC[C@H](C)[C@H](NC(=O)[C@H](CC1CCCCC1)NC(=O)c1ccno1)C(=O)N1CCC2(CCc3ccccc32)CC1 [GB83, reference compound]
Cat-S-induced albuminuria ([3]; 30 min, RO5459072 30 mg/kg/day pretreatment, GB83 10 mg/kg i.p.): completely prevented; also recorded: entirely blocked | Cat-S-induced glomerular endothelial cell injury (TEM) ([3]; 24 h): completely prevented
